Patent publication US20080109040A1, “METHOD OF TREATING ARRHYTHMIAS” (priority 2002, published 2008)

Legend:
anesthetized dog = experiment: QT prolongation and arrhythmia induction in anesthetized dog with AV block and phenylephrine challenge
Protocol: Dogs were pretreated with Atravet (0.07 mg/kg sc) and then 15 minutes later anesthetized with ketamine (5.3 mg/kg iv) and valium (0.25 mg/kg iv) followed by isoflurane (1-2%), intubated and subjected to mechanical ventilation. They were then subjected to AV block with radiofrequency ablation. A median sternotomy was performed and catheters were inserted into a femoral artery for blood pressure (BP) recording and into both femoral veins for infusion of test drugs. Bipolar electrodes were inserted into both ventricles for programmed stimulation determination of refractory periods (extrastimulus technique), as well as for evaluation of QT interval and QRS duration at various controlled basic cycle lengths (BCLs). TdP was induced by challenges of phenylephrine, which were given as bolus intravenous doses of 10, 20, 30, 40 and 50 μg/kg. After each dose, the ECG was monitored continuously to detect arrhythmias. […] Test drug effects were evaluated as per protocols below.
Data are presented as the mean ±S.E.M. Statistical comparisons were made with Student's t test. A 2-tailed probability<0.05 was taken to indicate statistical significance. In data tables, * denotes P<0.05, **P<0.01.
Group 2 (6 dogs): Five dogs received ranolazine as a 0.5 mg/kg iv load followed by a first, a second and a third continuous iv infusion of 1.0, 3.0 and 15 mg/kg/hr, respectively. One dog received ranolazine as a 1.5 mg/kg iv load followed by infusions of 15 and 30 mg/kg/hr. […] The phenylephrine challenges were then given, with all doses given at each drug infusion rate, and any arrhythmias monitor.

[1] = test system: patients with LQT3-ΔKPQ mutation; experiment: 8-hour intravenous ranolazine infusion in patients with hereditary long QT-syndrome LQT3-ΔKPQ; format: in vivo, human
Excerpt: Subjects were drawn from the U.S. portion of the international LQTS Registry. Eligibility criteria for enrollment in the study were genotype confirmed LQT3-ΔKPQ mutation with QTc>0.47 sec, males or females age 18-55 years of age, and signed informed consent to participate in this study. Patients already taking beta-blocking medication were continued on the drug. Patients with an implanted pacemaker or defibrillator or those with prior cervical-thoracic sympathetic ganglionectomy were not excluded. Exclusion criteria included significant comorbility that would preclude the patient's safe participation in this study, pregnancy or women of child-bearing age not receiving appropriate contraceptive therapy with any other sodium-channel blocker, use of medications that inhibit CYP-3A4 hepatic enzymes, (including diltiazem or verapamil) and psycho-social problems that could compromise compliance with the protocol. Thirteen patients with the LQT3-ΔKPQ mutation from two unrelated families met the eligibility criteria without exclusion, and of eight contacted patients five agreed to participate in the study.
Each patient had clinical and laboratory assessment including ultrasound evaluation on Day-2. Baseline studies off drug began at 8:00 am on Day-1: 12-lead ECG recorded at 8:00 am and every 0.5 hour for 8 hours and then at 2, 4, and 16 hours thereafter; a continuous 12-lead Holter was recorded for 24 hours. The 8-hour infusion of intravenous ranolazine was started at 8:00 am on Day 1 with time-matched ECG recordings at the same times as on Day-1. The second echocardiogram was obtained just before completion of the 8-hour of ranolazine infusion on Day 1. Blood samples for plasma ranolazine concentrations were drawn at hourly intervals during the ranolazine infusion, and at 2, 4, and 16 hours following completion of ranolazine infusion on Day 1.
Five patients with LQT3-ΔKPQ mutation were prospectively investigated during 8-hour intravenous infusions of ranolazine with electrocardiographic and echocardiographic evaluation before and during ranolazine administration. Ranolazine was infused at a rate of 40 mg/hr for 3 hours, with doubling of the infusion rate during the subsequent 5 hours while obtaining hourly ranolazine blood levels.
Changes in electrocardiographic parameters from before to during ranolazine infusion were evaluated by time-matched, paired t-test analyses, with repeated measures analysis of variance (ANOVA) where appropriate. The primary pre-specified electrocardiographic QTc analysis utilized a mixed-effects linear model of the change from time-matched baseline in QTc during ranolazine infusion with a fixed effect for time and a random effect for subject. A linear regression equation relating ranolazine blood level to QTc was developed using an analysis of covariance with effects for ranolazine level, subject and the interaction of subject with ranolazine level. The echocardiographic analyses involved evaluation of baseline parameters relative to normal standards for the laboratory as well as statistical comparisons of change in specific quantitative parameters between baseline and the peak ranolazine infusion. Two-sided p-values<0.05 were considered significant.
12-lead ECGs and 24-hour 12-lead Holter ECGs were obtained to evaluate ventricular repolarization before, during, and after ranolazine infusion. The QT interval and the Fridericia corrected QT interval for heart rate (QTc) were measured according to standard criteria. QT was measured from the beginning of QRS complex to the end of T wave determined by an intersection of T wave and isoelectric line or to the nadir between T and U waves. U waves were not incorporated in the measurement of QT interval. Measurement of T-wave patterns included QT peak (ms), T-wave duration (ms), T peak-T end (ms), and T-wave amplitude (mv). The ECG parameters were measured on 3 consecutive beats in lead II, with lead aVF or V5 used if lead II was technically unsatisfactory. […]

[2] = ranolazine 0.5 mg/kg iv load + 1.0 mg/kg/hr, BCL 300
[3] = ranolazine 0.5 mg/kg iv load + 1.0 mg/kg/hr, BCL 400
[4] = ranolazine 0.5 mg/kg iv load + 1.0 mg/kg/hr, BCL 600
[5] = ranolazine 3.0 mg/kg/hr, BCL 300
[6] = ranolazine 3.0 mg/kg/hr, BCL 400
[7] = ranolazine 3.0 mg/kg/hr, BCL 600
[8] = ranolazine 3.0 mg/kg/hr, BCL 1000
[9] = ranolazine 15 mg/kg/hr, BCL 400
[10] = ranolazine 15 mg/kg/hr, BCL 600
[11] = ranolazine 15 mg/kg/hr, BCL 1000
[12] = peak ranolazine infusion vs baseline

In the case of COc1ccccc1OCC(O)CN1CCN(CC(=O)Nc2c(C)cccc2C)CC1 (racemic) [ranolazine, N-(2,6-dimethylphenyl)-4-[2-hydroxy-3-(2-methoxyphenoxy)propyl]-1-piperazineacetamide], the “Induction of torsades de pointes and/or ventricular fibrillation” value (anesthetized dog; dog, in vivo) is reported as “unable to induce any”, the “Maximum increase of QT interval” value (anesthetized dog; dog, in vivo, 3 mg/kg, 30 min) is reported as “about 10%” and the Arrhythmia occurrence (anesthetized dog; dog, in vivo, 30 min) is reported as “VT 13 beats,”. The “Mean ERP-LV + SE” value (anesthetized dog; [2]) was 185.00 ± 8.1 ms, the “Mean ERP-RV + SE” value (anesthetized dog; [2]) was 182.84 ± 6.67 ms and the “Mean ERP-LV + SE” value (anesthetized dog; [3]) was 204.38 ± 11.01 ms. The “Mean ERP-RV + SE” value (anesthetized dog; [3]) was 201.50 ± 6.45 ms, the “Mean ERP-LV + SE” value (anesthetized dog; [4]) was 233.13 ± 12.43 ms and the “Mean ERP-RV + SE” value (anesthetized dog; [4]) was 227.50 ± 8.87 ms. For the same molecule, the “Mean ERP-LV + SE” value (anesthetized dog; ranolazine 0.5 mg/kg iv load + 1.0 mg/kg/hr, BCL 1000) was 259.38 ± 18.18 ms, the “Outcome of the high-dose dog” value (anesthetized dog; ranolazine 1.5 mg/kg iv load, 15 then 30 mg/kg/hr infusion) was “died of pump failure” and the “Mean ERP-LV + SE” value (anesthetized dog; [5]) was 189.38 ± 8.32 ms. For the same molecule, the “Mean ERP-RV + SE” value (anesthetized dog; [5]) was 181.00 ± 2.32 ms, the “Mean ERP-LV + SE” value (anesthetized dog; [6]) was 211.45 ± 9.2 ms and the “Mean ERP-RV + SE” value (anesthetized dog; [6]) was 199.66 ± 3.75 ms. For the same molecule, the “Mean ERP-LV + SE” value (anesthetized dog; [7]) was 238.13 ± 13.25 ms, the “Mean ERP-RV + SE” value (anesthetized dog; [7]) was 224.50 ± 4.83 ms and the “Mean ERP-LV + SE” value (anesthetized dog; [8]) was 265.43 ± 19.42 ms. The “Mean ERP-RV + SE” value (anesthetized dog; [8]) was 249.50 ± 6.19 ms, the “Mean ERP-RV + SE” value (anesthetized dog; ranolazine 15 mg/kg/hr, BCL 300) was 185.00 ± 5.76 ms and the “Mean ERP-LV + SE” value (anesthetized dog; [9]) was 215.00 ± 10.05 ms. For the same molecule, the “Mean ERP-RV + SE” value (anesthetized dog; [9]) was 206.50 ± 5.79 ms, the “Mean ERP-LV + SE” value (anesthetized dog; [10]) was 237.50 ± 14.11 ms and the “Mean ERP-RV + SE” value (anesthetized dog; [10]) was 229.50 ± 6.19 ms. For the same molecule, the “Mean ERP-LV + SE” value (anesthetized dog; [11]) was 260.43 ± 19.32 ms, the “Mean ERP-RV + SE” value (anesthetized dog; [11]) was 253.16 ± 7.77 ms and the “Mean increase of ERP” value (anesthetized dog; ranolazine infusions) was ≤ 10%. The QTc during ranolazine ([1]; 8-hour iv infusion, baseline 558±55 ms) was 532 ± 46 ms, the “Mean reduction in QTc from baseline” value ([1]; entire 8-hour iv ranolazine infusion, 5 patients) was 26 ± 3 ms and the “Average slope of QTc vs. ranolazine plasma concentration” value ([1]; human, in vivo) was −24 ms per 1000 ng/ml. The “Decrease in mitral E-wave deceleration time” value [1, 12] was 18%, the “Increase in mitral E-wave velocity” value [1, 12] was 27% and the “Shortening in left ventricular isovolumic relaxation time” value [1, 12] was 15%. The Adverse effects ([1]; study patients) was “No adverse effects”.
